Publication PMC7369900 (International Journal of Molecular Sciences, 2020)
Values after ≈ are worked out from the molar mass of the structure shown.

Legend:
HEK 293 [1] = test: cells; format: cell-based, human; settings: HEK 293, 72 h, MTT
Experimental: (§1) Among the conjugates, LVXC-S-S-CTP10-NH2 (5) was the least cytotoxic. […] In the case of HEK 293 and LLC-PK1 cells, the IC50 values of 5 were nearly four times higher. […] Additionally, we noted that the cancer cells Hep G2 were less sensitive to the action of the given compounds than the non-cancer cells (HEK 293 and LLC-PK1).
(§2) Cytotoxicity was assessed against three mammalian cell lines: LLC-PK1, Hep G2, and HEK 293. Multiwell (96–well) plates were seeded at 7000 cells/well in Medium 199 supplemented with 7.5% FBS, MEM Eagle’s medium supplemented with 10% FBS, or DMEM medium supplemented with 10% FBS, respectively. All media were supplemented with L-glutamine and antibiotics (penicillin/streptomycin). Cells were allowed to attach overnight. Drugs were dissolved in cell culture medium and added to wells in 100-µL aliquots of 2× concentrated solutions, in triplicates. To control wells, 100 µL of the medium were added. Cells were incubated with the studied compounds for 72 h at 37 °C and 95%/5% or 90%/10% (HEK 293 cells) CO2 atmosphere. Then, 20-µL aliquots of MTT solution in PBS (4 mg/mL) were added to all wells and plates were incubated further for 3 h in 37 °C. Formazan crystals formed were dissolved in 100 µL of DMSO and the absorbance of the solutions was measured using a multiwell plate reader (Spark, Tecan, Männedorf, Switzerland) at λ = 540 nm. Cytotoxicity was determined compared to the drug-free control. All experiments were performed in triplicates.

Hep G2 = test: cells; format: cell-based, human; settings: Hep G2, 72 h, MTT
Experimental: as §1, §2

LLC-PK1 = test: cells; format: cell-based, pig; settings: LLC-PK1, 72 h, MTT
Experimental: as §1, §2

S. aureus ATCC 29213 = test: microbe, parasite or virus in culture; format: cell-based, Staphylococcus aureus; settings: S. aureus ATCC 29213, MHB
Experimental: (§3) The antibacterial activity of TP10-NH2-based conjugates, as well as its constituents, was evaluated by microdilution assay in Mueller Hinton broth, MHB (Table 1). […] There are, however, some exceptions. […] Its activity against two other tested bacteria was somewhat lower though.
(§4) The antibacterial activity (bacteriostatic: MIC and bactericidal: MBC) of the tested compounds was determined in MHB (Mueller Hinton Broth, Sigma Aldrich, St. Louis, MO, USA) using a serial two-fold dilution method in 96-well microtiter plates according to CLSI recommendations, described in M07-A10 document. The exact conditions have been described previously. All experiments were performed in three replicates. The MIC90 and MIC50 values were defined as the concentrations of compounds tested that caused a 90% or 50% reduction of growth, respectively, comparing to the drug-free control.

[2] = system: S. epidermidis ATCC 12228; test: microbe, parasite or virus in culture; format: cell-based, Staphylococcus epidermidis; settings: S. epidermidis ATCC 12228, MHB
Experimental: as §3, §4

E. coli ATCC 25922 = test: microbe, parasite or virus in culture; format: cell-based, Escherichia coli; settings: E. coli ATCC 25922, MHB
Experimental: as §3, §4

P. aeruginosa ATCC 27853 = test: microbe, parasite or virus in culture; format: cell-based, Pseudomonas aeruginosa; settings: P. aeruginosa ATCC 27853, MHB
Experimental: as §3, §4

HEK 293 [3] = test: ROS generation (CM-H2DCFDA, flow cytometry); format: cell-based, human; settings: for ROS HEK 293: positive cells in 24 h, class
Experimental: (§5) In the positive controls treated with H2O2, the fraction of ROS-positive cells exceeded 75%. […] Strikingly, in HL-60, a biologically significant effect was observed almost immediately (after 15 min of incubation). The same was noted after 1 h in the HEK 293 cell line. […] Similarly, conjugates 4 and 5 generated ROS at the low level (less than 15% for HL-60 and less than 20% for HEK 293) (manuscript in preparation). […] For HL-60, the critical level of ROS was noted after 15 min of incubation.
(§6) ROS generation activity was evaluated as described previously. Briefly, HEK 293 cells were seeded on 35-mm Petri dishes in the amount of 15,000 cells per plate for 24 h in DMEM medium. […] Positive controls contained 250 µM H2O2, while negative controls were without any additions. After 0.5, 2.5, 5.5, and 24 h of incubation at 37 °C, the CM-H2DCFDA molecular probe (Thermo Fischer Scientific, Waltham, USA) was added to the plates and incubation was continued for another 0.5 h. The HEK 293 cells were detached with 0.05% trypsin solution in PBS and HBSS (Hank’s Balanced Salt Solution) and suspended in fresh DMEM medium. All samples were additionally stained with 7-AAD (7-aminoactinomycin D, 0.8 µg/mL) and immediately analysed with a Guava easyCyte flow cytometer (Merc, Burlington, USA). The determinations were performed in triplicates.

HL-60 = test: ROS generation (CM-H2DCFDA, flow cytometry); format: cell-based, human; settings: for ROS HL-60: positive cells in 24 h, class
Experimental: as §5, §6

[4] = system: C. albicans Δopt1Δopt5Δptr2Δptr22
[5] = molecular target: T1, yeast DNA topoisomerase II (Saccharomyces cerevisiae, UniProt P06786); test: biochemical; format: biochemical; settings: class; read-out: Topoisomerase II Inhibition
T1 construct: purchased Inspiralis (Norwich, UK)
T1 sequence (P06786 whole entry): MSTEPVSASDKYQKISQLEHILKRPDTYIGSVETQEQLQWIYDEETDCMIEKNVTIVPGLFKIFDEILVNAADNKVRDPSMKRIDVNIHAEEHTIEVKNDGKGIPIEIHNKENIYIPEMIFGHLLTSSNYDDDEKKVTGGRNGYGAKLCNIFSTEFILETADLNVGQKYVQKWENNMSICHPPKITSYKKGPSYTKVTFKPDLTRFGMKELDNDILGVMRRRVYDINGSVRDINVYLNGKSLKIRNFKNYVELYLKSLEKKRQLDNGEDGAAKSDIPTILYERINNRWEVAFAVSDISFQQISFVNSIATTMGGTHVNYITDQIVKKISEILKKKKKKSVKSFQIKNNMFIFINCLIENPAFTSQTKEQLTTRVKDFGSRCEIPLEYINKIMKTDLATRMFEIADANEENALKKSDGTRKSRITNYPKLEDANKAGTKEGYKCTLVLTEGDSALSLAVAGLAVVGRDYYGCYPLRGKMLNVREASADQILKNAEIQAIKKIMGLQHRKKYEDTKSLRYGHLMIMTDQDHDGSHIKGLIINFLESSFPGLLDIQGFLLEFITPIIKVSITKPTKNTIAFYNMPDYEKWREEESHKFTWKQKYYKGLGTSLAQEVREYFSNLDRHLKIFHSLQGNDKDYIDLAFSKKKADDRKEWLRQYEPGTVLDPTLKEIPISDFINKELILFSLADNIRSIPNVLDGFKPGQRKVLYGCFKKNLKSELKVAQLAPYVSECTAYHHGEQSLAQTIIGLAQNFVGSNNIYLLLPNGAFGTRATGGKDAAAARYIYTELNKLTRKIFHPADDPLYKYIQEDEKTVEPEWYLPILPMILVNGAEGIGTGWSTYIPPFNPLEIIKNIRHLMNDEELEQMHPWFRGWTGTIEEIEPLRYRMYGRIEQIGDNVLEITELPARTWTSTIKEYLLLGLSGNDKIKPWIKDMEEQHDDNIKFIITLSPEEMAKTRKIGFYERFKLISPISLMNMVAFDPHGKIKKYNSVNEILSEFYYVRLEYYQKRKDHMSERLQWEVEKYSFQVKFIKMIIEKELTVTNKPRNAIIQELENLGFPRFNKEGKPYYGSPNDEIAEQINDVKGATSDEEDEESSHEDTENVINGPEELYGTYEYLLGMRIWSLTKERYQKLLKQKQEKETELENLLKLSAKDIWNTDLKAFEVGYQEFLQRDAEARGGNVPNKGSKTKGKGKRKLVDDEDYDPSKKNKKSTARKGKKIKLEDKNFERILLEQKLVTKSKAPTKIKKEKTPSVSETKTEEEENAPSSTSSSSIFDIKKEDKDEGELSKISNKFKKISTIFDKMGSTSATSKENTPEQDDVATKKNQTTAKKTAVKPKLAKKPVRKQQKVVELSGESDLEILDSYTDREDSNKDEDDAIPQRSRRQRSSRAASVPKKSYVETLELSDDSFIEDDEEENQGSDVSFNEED

human red blood cells = test: Hemolysis assay; settings: 1 h, 37 °C
[6] = system: Gram-positive and Gram-negative bacteria; format: cell-based; settings: MHB, Gram-positive bacteria
Experimental: as §3, §4

| Compound | IC50 (HEK 293 [1]) [µM] | IC50 (Hep G2) [µM] | IC50 (LLC-PK1) [µM] | MIC50 (S. aureus ATCC 29213) [µM] | MIC90 (S. aureus ATCC 29213) [µM] | MIC50 [2] [µM] | MIC90 [2] [µM] | MIC50 (E. coli ATCC 25922) [µM] | MIC90 (E. coli ATCC 25922) [µM] | MIC50 (P. aeruginosa ATCC 27853) [µM] | MIC90 (P. aeruginosa ATCC 27853) [µM] | ROS HEK 293 (HEK 293 [3]) | MIC50 (C. albicans SC 5314) [µM] | MIC50 [4] [µM] | MIC90 [4] [µM] | MIC50 (C. albicans Gu4) [µM] | MIC50 (C. glabrata DSM 11226) [µM] | MIC50 (C. krusei DSM 6128) [µM] | IC50 [5] [µM] | ROS level (positive cells) (HEK 293 [3]; HEK 293) | also measured |
| --- | --- | --- | --- | --- | --- | --- | --- | --- | --- | --- | --- | --- | --- | --- | --- | --- | --- | --- | --- | --- | --- |
| CC[C@H](C)[C@H](NC(=O)[C@H](CCCCN)NC(=O)[C@H](CCCCN)NC(=O)[C@H](C)NC(=O)[C@H](CC(C)C)NC(=O)[C@H](C)NC(=O)[C@H](C)NC(=O)[C@H](CC(C)C)NC(=O)[C@H](C)NC(=O)[C@H](CCCCN)NC(=O)[C@H](CC(C)C)NC(=O)[C@H](CC(N)=O)NC(=O)[C@@H](NC(=O)[C@H](CCCCN)NC(=O)CNC(=O)[C@H](CC(C)C)NC(=O)[C@H](CC(C)C)NC(=O)[C@H](Cc1ccc(O)cc1)NC(=O)CNC(=O)[C@H](C)NC(=O)[C@@H](N)CS)[C@@H](C)CC)C(=O)N[C@@H](CC(C)C)C(N)=O [CTP10-NH2] | 19.5 ± 2.93 | 60 ± 5.75 | 51.6 ± 8.66 | – | – | – | – | – | – | – | – | – | – | – | – | – | – | – | – | – | – |
| CC[C@H](C)[C@H](NC(=O)[C@H](CCCCN)NC(=O)[C@H](CCCCN)NC(=O)[C@H](C)NC(=O)[C@H](CC(C)C)NC(=O)[C@H](C)NC(=O)[C@H](C)NC(=O)[C@H](CC(C)C)NC(=O)[C@H](C)NC(=O)[C@H](CCCCN)NC(=O)[C@H](CC(C)C)NC(=O)[C@H](CC(N)=O)NC(=O)[C@@H](NC(=O)[C@H](CCCCN)NC(=O)CNC(=O)[C@H](CC(C)C)NC(=O)[C@H](CC(C)C)NC(=O)[C@H](Cc1ccc(O)cc1)NC(=O)CNC(=O)[C@H](C)NC(=O)[C@@H](N)CSSC[C@H](N)C(=O)N1CCN(c2cc3c(cc2F)c(=O)c(C(=O)O)cn3C2CC2)CC1)[C@@H](C)CC)C(=O)N[C@@H](CC(C)C)C(N)=O [Compound 6, CIPC-S-S-CTP10-NH2] | 20.8 ± 10.9 | 37.7 ± 2.84 | 21.3 ± 1.33 | 3.125 (≈ 8.49 µg/mL) | 3.125 (≈ 8.49 µg/mL) | 6.25 (≈ 17 µg/mL) | 6.25 (≈ 17 µg/mL) | 6.25 (≈ 17 µg/mL) | 6.25 (≈ 17 µg/mL) | >100 | >100 | ++ (++ <10% positive cells in 24 h) | 50 (≈ 136 µg/mL) | 50 (≈ 136 µg/mL) | 50 (≈ 136 µg/mL) | 25 (≈ 67.9 µg/mL) | >200 | >200 | – | – | ROS induction (HEK 293 [3]; HEK 293): did not induce a significant level of ROS; Incubation time at which significant/critical ROS level was noted (HL-60; HL-60): 15 min |
| CC[C@H](C)[C@H](NC(=O)[C@H](CCCCN)NC(=O)[C@H](CCCCN)NC(=O)[C@H](C)NC(=O)[C@H](CC(C)C)NC(=O)[C@H](C)NC(=O)[C@H](C)NC(=O)[C@H](CC(C)C)NC(=O)[C@H](C)NC(=O)[C@H](CCCCN)NC(=O)[C@H](CC(C)C)NC(=O)[C@H](CC(N)=O)NC(=O)[C@@H](NC(=O)[C@H](CCCCN)NC(=O)CNC(=O)[C@H](CC(C)C)NC(=O)[C@H](CC(C)C)NC(=O)[C@H](Cc1ccc(O)cc1)NC(=O)CNC(=O)[C@H](C)NC(=O)[C@@H](N)CSSC[C@H](NC(=O)c1cn2c3c(c(N4CCN(C)CC4)c(F)cc3c1=O)OC[C@@H]2C)C(=O)O)[C@@H](C)CC)C(=O)N[C@@H](CC(C)C)C(N)=O [Compound 5, LVXC-S-S-CTP10-NH2] | 41.3 ± 1.1 | 102 ± 4.9 | 105 ± 15.6 | 6.25 (≈ 17.2 µg/mL) | 6.25 (≈ 17.2 µg/mL) | 3.125 (≈ 8.59 µg/mL) | 3.125 (≈ 8.59 µg/mL) | 3.125 (≈ 8.59 µg/mL) | 3.125 (≈ 8.59 µg/mL) | 12.5 (≈ 34.3 µg/mL) | 25 (≈ 68.7 µg/mL) | ++ (++ <10% positive cells in 24 h) | 12.5 (≈ 34.3 µg/mL) | 12.5 (≈ 34.3 µg/mL) | 25 (≈ 68.7 µg/mL) | 12.5 (≈ 34.3 µg/mL) | >200 | 50 (≈ 137 µg/mL) | < 50 | less than 20% | ROS level (positive cells) (HL-60; HL-60): less than 15%; ROS HL-60 (HL-60): ++ (++ <10% positive cells in 24 h); MIC90 (C. albicans SC 5314): 25 µM (≈ 68.7 µg/mL); MHC50 (concentration causing 50% hemolysis) (human red blood cells): 140 µg/mL; MHC50 (concentration causing 50% hemolysis) (human red blood cells; converted from μg/mL): ~ 51 μM |
| CC[C@H](C)[C@H](NC(=O)[C@H](CCCCN)NC(=O)[C@H](CCCCN)NC(=O)[C@H](C)NC(=O)[C@H](CC(C)C)NC(=O)[C@H](C)NC(=O)[C@H](C)NC(=O)[C@H](CC(C)C)NC(=O)[C@H](C)NC(=O)[C@H](CCCCN)NC(=O)[C@H](CC(C)C)NC(=O)[C@H](CC(N)=O)NC(=O)[C@@H](NC(=O)[C@H](CCCCN)NC(=O)CNC(=O)[C@H](CC(C)C)NC(=O)[C@H](CC(C)C)NC(=O)[C@H](Cc1ccc(O)cc1)NC(=O)CNC(=O)[C@H](C)NC(=O)c1cn2c3c(c(N4CCN(C)CC4)c(F)cc3c1=O)OC[C@@H]2C)[C@@H](C)CC)C(=O)N[C@@H](CC(C)C)C(N)=O [Compound 4, LVX-TP10-NH2] | 22.5 ± 9.7 | 72.6 ± 13 | 52.9 ± 8.15 | 1.6 (≈ 4.04 µg/mL) | 1.6 (≈ 4.04 µg/mL) | 1.6 (≈ 4.04 µg/mL) | 1.6 (≈ 4.04 µg/mL) | 50 (≈ 126 µg/mL) | 50 (≈ 126 µg/mL) | 100 (≈ 253 µg/mL) | 100 (≈ 253 µg/mL) | ++ (++ <10% positive cells in 24 h) | 50 (≈ 126 µg/mL) | 100 (≈ 253 µg/mL) | 100 (≈ 253 µg/mL) | 25 (≈ 63.1 µg/mL) | >200 | 100 (≈ 253 µg/mL) | < 10 | less than 20% | MIC90 against Gram-positive bacteria [6]: 1.6 µM (≈ 4.04 µg/mL); ROS level (positive cells) (HL-60; HL-60): less than 15%; ROS HL-60 (HL-60): + (+ <15% positive cells in 24 h); MIC90 (C. albicans SC 5314): 100 µM (≈ 253 µg/mL) |
